From BindingDB's records for doi:10.1016/j.chembiol.2005.11.011 (Cyclacel, 2006)

Target: Cyclin-dependent kinase 2 (Homo sapiens, UniProt P24941)
Experiment: In Vitro Inhibition
Text: In vitro inhibition assay using human recombinant CDK2 and human recombinant cyclin A2.

SMILES: O=[N+]([O-])c1cccc(Nc2nccc(-c3cccc(Cn4cncn4)c3)n2)c1 [N-(3-nitrophenyl)-4-[3-(1H-1,2,4-triazol-1-ylmethyl)phenyl]pyrimidin-2-amine, 6]
- IC50: 250 nM
